{
  "source": "patent US10537535B2",
  "about": "“Histone deacetylase inhibitors” (The Regents of the University of California, priority 2015, dated 2020)",
  "key": {"[1]": {"tested_on": "gene expression in the antenna of Drosophila melanogaster", "test": "RNA-seq transcriptome analysis of Drosophila antennae after exposure or feeding", "type": "in vivo", "from_the_text": "In order to examine the physiological effects of long-term exposure to an odorant, flies were maintained in vials with circulating volatiles from headspace of a low concentration (1% in paraffin oil) of the odorant diacetyl, which acts on a number of different receptor pathways in Drosophila. In a similar manner to previous odor-exposure studies, flies were exposed to diacetyl for 5 days and performed an RNA-seq analysis of the antennae, which are known odor-detecting organs. The transcriptome was compared with a control group of age-matched flies that were exposed to the headspace of the solvent paraffin oil (PO, FIG. 3A).\nFlies were exposed to diacetyl (2,3-Butanedione, B85307, Sigma-Aldrich, St. Louis, Mo.) by placing them in vials in a cylindrical closed container (112 mm diameter×151 mm height) along with an odor-containing glass vial. The odorant was dissolved in 10 mL paraffin oil at 1% dilution. For a given exposure protocol, two groups of flies were prepared: those exposed to 1% diacetyl headspace and those exposed to paraffin oil headspace alone (control flies). Adult male flies aged 1 d were transferred to fly vials containing fresh medium, and put into the container with the odor vial. At the end of the fifth day of exposure, flies were collected, and their antennae were dissected for RNA extraction. All treatments and experiments were performed at room temperature. For the recovery experiment, flies were transferred again to the container containing a glass vial of paraffin oil after 5 days of diacetyl exposure. At the end of the fifth day of recovery, flies were collected, and their antennae were dissected for RNA extraction.\nSodium butyrate (B5887, Sigma-Aldrich) or valproic acid (P4543, Sigma-Aldrich) were dissolved in normal fly food medium at the final concentration of 10 mM. Three groups of flies were prepared: those treated with one of the HDAC inhibitors and those without HDAC inhibitor treatment (control flies). Adult flies aged 1 d were transferred to fly vials containing medium with or without a HDAC inhibitor. At the end of the fifth day of treatment, flies were collected, and their antennae were dissected for RNA extraction. All treatments and experiments were performed at room temperature.\nThe second and third antennal segments from 40-60 male flies after treatment were carefully hand-dissected from the head, collected in 1.5 ml microfuge tubes kept cold in liquid nitrogen. Antennae were mechanically crushed with disposable RNAse-free plastic pestles, and total RNA was isolated using a Trizol-based protocol. cDNA libraries were prepared from total RNA (300-1000 ng/sample) using the Illumina TruSeq RNA Library Preparation Kit (Illumina Catalog #RS-122-2001). Samples were submitted to the UCR IIGB sequencing core for high-throughput sequencing using the Illumina HiSeq2500 platform. Raw reads were aligned to the Drosophila melanogaster reference genome (dmel-all-chromosome-r5.48.fasta) with Tophat2, and a count table of reads overlapping with exonic regions of genes was generated by the UCR bioinformatics core. The numbers of biological replicates are: 2, day 5 paraffin oil; 1, day 5 diacetyl; 2, day 5 mock; 2, day 5 sodium butyrate; 2, day 5 valproic acid; 2, day 10 paraffin oil recovery; 2, day 10 diacetyl recovery.\nThe read count table for all the genes were then imported into R and a statistical analysis of differential gene expression using the DESeq package (1.22.0) was performed. […] The gene list analysis was performed using the GO Term Mapper (http://go.princeton.edu/) with Generic GO slim datasets, and the Statistical overrepresentation test was performed using the PANTHER classification (http://www.pantherdb.org/) system with GO complete datasets.\nThis example investigates the overlap among genes modulated by diacetyl as compared to sodium butyrate and valproic acid, which are known HDAC inhibitors. […]"}, "human HDAC3": {"target": "T1, human HDAC3 (Homo sapiens, UniProt O15379)", "T1 construct": "purchased BPS Bioscience 50073", "T1 sequence (O15379 whole entry)": "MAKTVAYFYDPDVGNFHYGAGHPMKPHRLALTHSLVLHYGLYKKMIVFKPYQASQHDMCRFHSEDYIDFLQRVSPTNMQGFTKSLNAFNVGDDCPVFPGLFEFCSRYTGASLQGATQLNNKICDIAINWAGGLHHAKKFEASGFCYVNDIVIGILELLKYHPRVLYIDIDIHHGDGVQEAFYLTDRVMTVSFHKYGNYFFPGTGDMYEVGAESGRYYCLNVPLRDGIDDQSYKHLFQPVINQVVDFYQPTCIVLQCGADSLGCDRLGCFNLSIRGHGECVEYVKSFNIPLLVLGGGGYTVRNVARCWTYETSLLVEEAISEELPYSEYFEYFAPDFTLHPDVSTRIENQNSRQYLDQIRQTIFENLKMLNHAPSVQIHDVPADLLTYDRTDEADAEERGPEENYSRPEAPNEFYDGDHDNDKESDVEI", "T1 sequence (Q9Y618 395-489 partner limits assumed)": "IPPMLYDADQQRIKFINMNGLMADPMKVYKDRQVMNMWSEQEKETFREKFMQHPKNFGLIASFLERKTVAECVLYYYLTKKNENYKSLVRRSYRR", "test": "Fluorometric HDAC activity assay, purified human HDAC3", "type": "biochemical", "settings": "purified human HDAC3, n=4-5", "description": "In order to directly test whether diacetyl acts as an inhibitor of HDACs, in vitro acetylation assays was performed with purified human HDACs. In this example, β-hydroxybutyrate (a naturally-occurring HDAC inhibitor secreted by the liver, targeting zinc-dependent HDACs) was used for comparison. HDAC activity of class I HDACs (HDAC1, 2, 3 and 8) was measured with the fluorometric HDAC Activity Assay kit: HDAC1 (10011563, Cayman Chemical, Ann Arbor, Mich.), HDAC2, HDAC 3 and HDAC 8 (50062, 50073 and 50068, BPS Bioscience, San Diego, Calif.), according to the manufacturer's instructions."}, "pGMR-HTTQ120 flies": {"tested_on": "pGMR-HTTQ120 flies", "test": "Huntington's model Drosophila (pGMR-HTTQ120), rhabdomere count by pseudopupil analysis", "type": "in vivo", "from_the_text": "To investigate the effect of diacetyl on neurodegeneration, Huntington model Drosophila flies (GMR-HTTQ120; expressing human huntington HTTQ120 protein from a GMR promoter) were exposed to odor 1 (diacetyl) at 1% concentration from filter paper for five days as a volatile scent. Following exposure, the omatidia in the eyes of the flies were visualized. […] The number of rhabdomeres present in the omatidia were counted (wildtype flies have 7 rhabdomeres in each omatidia).\nWhen the transgenic flies expressing two copies of the human Huntington with poly-Q repeats (HTTQ120) under control of the eye-specific GMR promoter were raised at 18° C., the number of rhabdomeres in each ommatidium was similar to that of control flies (7) immediately post-eclosion (day 1, FIGS. 8A-8C). […] The mean number of rhabdomeres was reduced from 7 to ˜1 by day 10.\nFlies were exposed to diacetyl in a cylindrical container (112 mm diameter×151 mm height). Each container was tightly closed but had 2 holes, one of which connected to an air suction port, and the other to a vial containing either of 5 mL paraffin oil or 5 mL 1% diacetyl in paraffin oil. A gentle suction was applied to pull the headspace from the odor or paraffin oil vials into the cylindrical structure (FIG. 11). pGMR-HTTQ120 flies were maintained at 18° C. Adult flies aged 1 d were transferred to fly vials containing fresh medium, and put into the odor-filled container at room temperature. Paraffin oil and 1% diacetyl solution were prepared and replaced every day. At the end of the fifth day of exposure, half of the flies were collected and subjected to pseudopupil analysis. The remaining flies were transferred to fresh medium and exposed to the odors for an additional 5 days. All treatments and experiments were performed at room temperature.\nPseudopupil Analysis was performed according to a protocol described previously (Song et al., 2013). Flies were decapitated and mounted on a microscope slide by dipping in a drop of nail polish. The arrangement of rhabdomeres in the ommatidia of the compound eyes were analyzed with Axio Imager M2 (Carl Zeiss, Oberkochen, Germany) using a 63× objective, and photographed with Axiocam 506 mono (Carl Zeiss). Six hundred ommatidia from 30 eyes of 15 flies were scored for each condition."}, "[2]": {"settings": "5 days, diacetyl 1% headspace, SB/VA 10 mM in food, vs control"}, "[3]": {"settings": "of 125 up-regulated genes, 5 days exposure then 5 days recovery"}, "[4]": {"settings": "out of 125 diacetyl-induced genes"}},
  "data": [
    {"compound": "CC(=O)C(C)=O", "note": "[diacetyl, 2,3-Butanedione]", "values": [
      {"measurement": "number of differentially-expressed genes in antennal transcriptome", "setting": "[1]; [2]", "value": 202, "unit": "genes"},
      {"measurement": "number of genes down-regulated >2-fold", "setting": "[1]; [2]", "value": 77, "unit": "genes"},
      {"measurement": "number of genes up-regulated >2-fold", "setting": "[1]; [2]", "value": 125, "unit": "genes"},
      {"measurement": "genes continuing to show increased mRNA abundance after odor removal", "setting": "[1]; [3]", "value": 11, "unit": "genes"},
      {"measurement": "genes showing little change after recovery", "setting": "[1]; [3]", "value": 38, "unit": "genes"},
      {"measurement": "transcripts showing a reduction with diacetyl recovery", "setting": "[1]; [3]", "value": 27, "unit": "genes"},
      {"measurement": "diacetyl down-regulated genes overlapping with those down-regulated in either SB- or VA-treated groups", "setting": "[1]; out of 77 down-regulated genes", "value": "About 28 genes"},
      {"measurement": "diacetyl-induced genes overlapping with SB-induced genes", "setting": "[1]; [4]", "value": 51, "unit": "genes"},
      {"measurement": "diacetyl-induced genes overlapping with VA-induced genes", "setting": "[1]; [4]", "value": 40, "unit": "genes"},
      {"measurement": "IC50", "setting": "human HDAC3", "value": 7.72, "unit": "mM"},
      {"measurement": "rhabdomeres left in the majority of ommatidia", "setting": "pGMR-HTTQ120 flies; 1% headspace, after 10 days, solvent controls ~1-2", "value": "2-3 rhabdomeres"},
      {"measurement": "rhabdomeres retained in the majority of ommatidia", "setting": "pGMR-HTTQ120 flies; 1% headspace, day 5", "value": "6-7 rhabdomeres"},
      {"measurement": "rhabdomeres in omatidia vs not exposed flies", "setting": "pGMR-HTTQ120 flies; GMR-HTTQ120 flies, 1% from filter paper, five days, FIG. 2A", "value": "greater rhabdomeres"},
      {"measurement": "inhibition of rhabdomere loss", "setting": "pGMR-HTTQ120 flies; volatile headspace of 1% diacetyl in paraffin oil, after eclosion, 25° C.", "value": 50, "unit": "%"}
    ]}
  ]
}
